Experimental data: patent publication US20250243208A1, “BICYCLIC HETEROCYCLES AS MRGPRX2 ANTAGONISTS” (Incyte Corporation, priority 2024, published 2025)

Tests used:
MRGPRX2 [1] = target: T1, MRGPRX2 (Homo sapiens, UniProt Q96LB1); assay: MRGPRX2 IP1 HTRF assay; type: cell-based; parameters: host or cells: CHO-K1; conditions: CHO-K1 cells, agonist Cortistatin 14 1 μM, IP1 accumulation
T1 sequence (Q96LB1 1-330): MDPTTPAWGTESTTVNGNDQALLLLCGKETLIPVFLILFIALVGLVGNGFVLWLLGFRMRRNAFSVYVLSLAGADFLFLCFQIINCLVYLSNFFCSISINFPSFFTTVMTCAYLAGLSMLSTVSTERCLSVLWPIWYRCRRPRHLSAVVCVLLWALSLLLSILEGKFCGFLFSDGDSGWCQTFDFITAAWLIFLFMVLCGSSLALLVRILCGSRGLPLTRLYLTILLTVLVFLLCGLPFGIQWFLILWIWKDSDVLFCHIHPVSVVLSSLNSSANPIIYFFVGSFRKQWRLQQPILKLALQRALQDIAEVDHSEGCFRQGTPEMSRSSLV
Description: Example B: MRGPRX2 IP1 HTRF Assay
This assay measures compound inhibition of myo-Inositol 1 phosphate (IP1) accumulation in CHO-K1 cells. Chinese hamster ovary (CHO-K1) cells stably expressing human MRGPRX2 were purchased from GenScript (Piscataway, NJ).
For the HTRF IP1 determination, an IP-One GqKit (Perkin Elmer Cisbio, Waltham, MA), which includes all reagents and buffers in this protocol, was used. The cells were maintained in culture medium (Ham's F-12K) containing 10% (v/v) FBS, and 200 μg/mL Zeocin. For the assay, the cells were harvested and resuspended in culture medium with 2% FBS and without Zeocin, then were passed through a 40 μm filter. Cells were added at 20000 cells in a 5 μL/well to a 384-well white small volume cell culture plate (Greiner VWR, Radnor, PA) which contained 50 nL/well of test compound serially diluted at a selected concentration range in DMSO. 5 μL/well of prepared 2× Stimulation Buffer2 was then added to plates and was incubated at 37° C. with 5% CO2 for 1 h. 5 μL/well of agonist Cortistatin 14 (Bio-TechneR&D Systems, Minneapolis, MN) in 1× Stimulation Buffer 2, for a 1 μM final concentration, was then added to plates and incubated at 37° C. with 5% CO2 for 1 h. 6 μL/well of 1:20 diluted Detection Reagent Mix (d2 and Cryptate) was added to the plates and incubated for 1 h in the dark. Plates were read on the PHERAstar microplate reader (BMG Labtech Cary, NC) to determine the HTRF ratio of the acceptor and donor emission signals. The IP1 concentrations were calculated from a standard curve following the IP-One GQ kit instructions. Wells with DMSO only and wells with high concentration of reference antagonist were used as controls for normalization. Compound IC50 curves were globally fitted with 3- or 4-parameter Hill equation in a Genedata Screener (Genedata Basel, Switzerland).

MRGPRX2 [2] = target: T1, MRGPRX2; assay: MRGPRX2 β-Arrestin recruitment assay (PathHunter CHO-K1); type: cell-based; parameters: host or cells: PathHunter CHO-K1; conditions: PathHunter CHO-K1 cells, agonist Cortistatin 14 0.25 μM
Description: Example C: MRGPRX2 β-Arrestin Assay
This assay measures compound inhibition of β-Arrestin recruitment, which is part of the G protein-independent pathway that results from the ligand-activated GPCR phosphorylation by specific GPCR kinases. The PathHunter CHO-K1 MRPGRX2 B-Arrestin Cell line stably expressing ProLink tagged MRGPRX2 and Enzyme Acceptor Tagged B-Arrestin was purchased from Eurofins DiscoverX, (Fremont, CA).
The cells were maintained in culture medium from the Europhins DiscoverX Cell Culture Kit-107 which includes FBS, hygromycin B and G418. For the assay, the cells were harvested and were resuspended with Cell Plating Reagent 2 (Eurofins DiscoverX). Cells were added 10000 cells in 25 μL/well to a 384-well black cell culture plate (Greiner VWR, Radnor, PA) which contained 125 nL/well of compound at a selected serially diluted concentration range or DMSO. The plate was incubated at 37° C. with 5% CO2 for 1 h. 2 μL/well of agonist Cortistatin 14 was diluted in Protein Dilution Buffer, (Eurofins DiscoverX) for a final concentration of 0.25 μM, was added and the plate was incubated at 37° C. with 5% CO2 for 90 min. 14 μL/well of Detection Reagent Mix (PathHunter Detection Kit, Eurofins DiscoverX) was added to the plates and further incubated for 1 h in the dark. Plates were read on the PHERAstar microplate reader (BMG Labtech Cary, NC) measuring luminescence 0.1 to 1 s per well. Data was normalized using DMSO only wells and wells with high concentration of reference antagonist as controls. Compound IC50 curves were globally fitted with 3- or 4-parameter Hill equation in a Genedata Screener (Genedata Basel, Switzerland).

MRGPRX2 [3] = target: T1, MRGPRX2; assay: potency comparison of separated isomers (assay not stated); conditions: compared with the other separated diastereomer/enantiomer

SMILES	IC50 (MRGPRX2 [1]) [nM]	IC50 (MRGPRX2 [2]) [nM]	relative potency of the separated isomer (MRGPRX2 [3])
CC(CNc1cc(C(F)F)nc2cc(C(F)(F)F)nn12)(c1ccccc1)C1CN(S(N)(=O)=O)C1 (racemic) [Example 7, 3-(1-((5-(Difluoromethyl)-2-(trifluoromethyl)pyrazolo[1,5-a]pyrimidin-7-yl)amino)-2-phenylpropan-2-yl)azetidine-1-sulfonamide]	0.1 to 100	0.1 to 100	–
CC(CNc1cc(C(F)F)nc2cc(C(F)(F)F)nn12)(c1ccccc1)C1CN(C(N)=O)C1 (racemic) [Example 8, 3-(1-((5-(Difluoromethyl)-2-(trifluoromethyl)pyrazolo[1,5-a]pyrimidin-7-yl)amino)-2-phenylpropan-2-yl)azetidine-1-carboxamide]	0.1 to 100	0.1 to 100	–
CC(CNc1cc(C(F)(F)F)nc2cc(C(F)(F)F)nn12)(c1ccccc1)C1CN(c2n[nH]c(N)n2)C1 (racemic) [Example 9, N-(2-(1-(5-Amino-1H-1,2,4-triazol-3-yl)azetidin-3-yl)-2-phenylpropyl)-2,5-bis(trifluoromethyl)pyrazolo[1,5-a]pyrimidin-7-amine]	0.1 to 100	0.1 to 100	–
CC(CNc1cc(C(F)(F)F)nc2cc(C(F)(F)F)nn12)(c1ccccc1)C1CN(C(N)=O)C1 (racemic) [Example 10, 3-(1-((2,5-Bis(trifluoromethyl)pyrazolo[1,5-a]pyrimidin-7-yl)amino)-2-phenylpropan-2-yl)azetidine-1-carboxamide]	0.1 to 100	0.1 to 100	–
CC(CNc1cc(C(F)(F)F)nc2cc(C(F)(F)F)nn12)(c1ccccc1)C1CNC1 (racemic) [Example 11, N-(2-(Azetidin-3-yl)-2-phenylpropyl)-2,5-bis(trifluoromethyl)pyrazolo[1,5-a]pyrimidin-7-amine]	0.1 to 100	0.1 to 100	–
C[C@](CNc1cc(C(F)(F)F)nc2cc(C(F)(F)F)nn12)(c1ccc(F)cc1)C1CN(C(N)=O)C1 (single isomer, unassigned) [Example 5, 3-(1-((2,5-Bis(trifluoromethyl)pyrazolo[1,5-a]pyrimidin-7-yl)amino)-2-(4-fluorophenyl)propan-2-yl)azetidine-1-carboxamide]	0.1 to 100	–	–
C[C@](CNc1cc(C(F)(F)F)nc2cc(C(F)(F)F)nn12)(c1ccc(F)cc1)C1CN(C(N)=O)C1 (single isomer, unassigned) [Example 6, 3-(1-((2,5-Bis(trifluoromethyl)pyrazolo[1,5-a]pyrimidin-7-yl)amino)-2-(4-fluorophenyl)propan-2-yl)azetidine-1-carboxamide]	0.1 to 100	0.1 to 100	–
CC(CNc1cc(C(F)(F)F)nc2cc(C(F)(F)F)nn12)(c1ccc(F)cc1)C1CCN(C(=O)NCCO)C1 (single isomer, unassigned) [Example 16, 3-(1-((2,5-Bis(trifluoromethyl)pyrazolo[1,5-a]pyrimidin-7-yl)amino)-2-(4-fluorophenyl)propan-2-yl)-N-(2-hydroxyethyl)pyrrolidine-1-carboxamide]	0.1 to 100	0.1 to 100	more potent
CC(CNc1cc(C(F)(F)F)nc2cc(C(F)(F)F)nn12)(c1ccc(F)cc1)C1CCN(CC(N)=O)C1 (single isomer, unassigned) [Example 17, 2-(3-(1-((2,5-Bis(trifluoromethyl)pyrazolo[1,5-a]pyrimidin-7-yl)amino)-2-(4-fluorophenyl)propan-2-yl)pyrrolidin-1-yl)acetamide]	0.1 to 100	0.1 to 100	more potent
NC(=O)N1CCC(C(CO)(CNc2cc(C(F)(F)F)nc3cc(C(F)(F)F)nn23)c2ccc(F)cc2)C1 (single isomer, unassigned) [Example 18, 3-(1-((2,5-Bis(trifluoromethyl)pyrazolo[1,5-a]pyrimidin-7-yl)amino)-2-(4-fluorophenyl)-3-hydroxypropan-2-yl)pyrrolidine-1-carboxamide]	0.1 to 100	0.1 to 100	–
NC(=O)N1CCC(C(CNc2cc(C(F)(F)F)nc3cc(C(F)(F)F)nn23)c2ccc(F)cc2)C1 (single isomer, unassigned) [Example 20, 3-(2-((2,5-Bis(trifluoromethyl)pyrazolo[1,5-a]pyrimidin-7-yl)amino)-1-(4-fluorophenyl)ethyl)pyrrolidine-1-carboxamide]	–	0.1 to 100	more potent
O=C1NC2(CCO1)CN(C(CNc1cc(C(F)(F)F)nc3cc(C(F)(F)F)nn13)c1ccc(F)cc1)C2 (single isomer, unassigned) [Example 25, 2-(2-((2,5-Bis(trifluoromethyl)pyrazolo[1,5-a]pyrimidin-7-yl)amino)-1-(4-fluorophenyl)ethyl)-7-oxa-2,5-diazaspiro[3.5]nonan-6-one]	–	0.1 to 100	more potent
[2H]C([2H])([2H])NC(=O)C1CN(C(CNc2cc(C(F)(F)F)nc3cc(C(F)(F)F)nn23)c2ccc(F)cc2)C1 (single isomer, unassigned) [Example 26, 1-(2-((2,5-Bis(trifluoromethyl)pyrazolo[1,5-a]pyrimidin-7-yl)amino)-1-(4-fluorophenyl)ethyl)-N-(methyl-d3)azetidine-3-carboxamide]	–	0.1 to 100	more potent
CC1(O)CN(C(CNc2cc(C(F)(F)F)nc3cc(C(F)(F)F)nn23)c2ccc(F)cc2)C1 (single isomer, unassigned) [Example 35, 1-(2-((2,5-Bis(trifluoromethyl)pyrazolo[1,5-a]pyrimidin-7-yl)amino)-1-(4-fluorophenyl)ethyl)-3-methylazetidin-3-ol]	–	0.1 to 100	active
O=C1CC2(CN1)CN(C(CNc1cc(C(F)(F)F)nc3cc(C(F)(F)F)nn13)c1ccc(F)cc1)C2 (single isomer, unassigned) [Example 36, 2-(2-((2,5-Bis(trifluoromethyl)pyrazolo[1,5-a]pyrimidin-7-yl)amino)-1-(4-fluorophenyl)ethyl)-2,6-diazaspiro[3.4]octan-7-one]	–	0.1 to 100	active
O=C1NCC2(CN(C(CNc3cc(C(F)(F)F)nc4cc(C(F)(F)F)nn34)c3ccc(F)cc3)C2)N1 (single isomer, unassigned) [Example 37, 2-(2-((2,5-Bis(trifluoromethyl)pyrazolo[1,5-a]pyrimidin-7-yl)amino)-1-(4-fluorophenyl)ethyl)-2,5,7-triazaspiro[3.4]octan-6-one]	–	0.1 to 100	active
OC1CC2CC1CN2C(CNc1cc(C(F)(F)F)nc2cc(C(F)(F)F)nn12)c1ccc(F)cc1 (stereo not shown) [Example 22, 2-(2-((2,5-Bis(trifluoromethyl)pyrazolo[1,5-a]pyrimidin-7-yl)amino)-1-(4-fluorophenyl)ethyl)-2-azabicyclo[2.2.1]heptan-5-ol]	–	0.1 to 100	–
